{"source": "paper PMC11345841", "about": "“Exploring 2-Sulfonylpyrimidine Warheads as Acrylamide Surrogates for Targeted Covalent Inhibition: A BTK Story” (Journal of Medicinal Chemistry, 2024)", "assay_in_all_cases": "KINOMEscan ScanTK", "format_in_all_cases": "binding", "key": {"LTK": {"target": "T1, LTK (Homo sapiens, UniProt P29376)", "T1 construct": "purchased Eurofins DiscoverX KINOMEscan (scanTK)", "T1 sequence (P29376 17-864)": "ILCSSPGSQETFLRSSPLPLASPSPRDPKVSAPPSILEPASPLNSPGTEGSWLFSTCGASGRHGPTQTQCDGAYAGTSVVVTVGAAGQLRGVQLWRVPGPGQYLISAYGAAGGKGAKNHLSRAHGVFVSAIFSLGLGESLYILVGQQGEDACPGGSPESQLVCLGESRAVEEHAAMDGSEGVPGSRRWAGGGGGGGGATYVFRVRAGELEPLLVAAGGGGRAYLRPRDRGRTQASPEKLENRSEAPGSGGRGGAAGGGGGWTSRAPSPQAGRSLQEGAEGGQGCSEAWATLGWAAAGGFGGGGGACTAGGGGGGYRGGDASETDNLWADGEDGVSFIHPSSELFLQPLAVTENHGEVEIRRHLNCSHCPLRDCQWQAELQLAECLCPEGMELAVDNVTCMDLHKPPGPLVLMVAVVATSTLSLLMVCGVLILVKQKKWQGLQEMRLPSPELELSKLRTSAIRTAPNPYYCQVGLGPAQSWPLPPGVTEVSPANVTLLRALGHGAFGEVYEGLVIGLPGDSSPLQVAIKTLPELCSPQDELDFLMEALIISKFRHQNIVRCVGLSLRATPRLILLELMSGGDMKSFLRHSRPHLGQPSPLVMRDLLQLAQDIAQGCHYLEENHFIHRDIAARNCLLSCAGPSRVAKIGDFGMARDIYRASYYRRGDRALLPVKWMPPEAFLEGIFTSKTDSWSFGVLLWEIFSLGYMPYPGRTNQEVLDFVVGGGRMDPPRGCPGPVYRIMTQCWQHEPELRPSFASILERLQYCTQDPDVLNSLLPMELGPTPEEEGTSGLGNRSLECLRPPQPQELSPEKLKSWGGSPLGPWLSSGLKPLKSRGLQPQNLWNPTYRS"}, "LCK": {"target": "T2, LCK (Homo sapiens, UniProt P06239)", "T2 construct": "purchased Eurofins DiscoverX KINOMEscan (scanTK)"}, "EGFR(L858R)": {"target": "T3, EGFR(L858R) (Homo sapiens, UniProt P00533, L858R)", "T3 construct": "purchased Eurofins DiscoverX KINOMEscan (scanTK)", "T3 sequence (P00533 25-1210 L858R)": "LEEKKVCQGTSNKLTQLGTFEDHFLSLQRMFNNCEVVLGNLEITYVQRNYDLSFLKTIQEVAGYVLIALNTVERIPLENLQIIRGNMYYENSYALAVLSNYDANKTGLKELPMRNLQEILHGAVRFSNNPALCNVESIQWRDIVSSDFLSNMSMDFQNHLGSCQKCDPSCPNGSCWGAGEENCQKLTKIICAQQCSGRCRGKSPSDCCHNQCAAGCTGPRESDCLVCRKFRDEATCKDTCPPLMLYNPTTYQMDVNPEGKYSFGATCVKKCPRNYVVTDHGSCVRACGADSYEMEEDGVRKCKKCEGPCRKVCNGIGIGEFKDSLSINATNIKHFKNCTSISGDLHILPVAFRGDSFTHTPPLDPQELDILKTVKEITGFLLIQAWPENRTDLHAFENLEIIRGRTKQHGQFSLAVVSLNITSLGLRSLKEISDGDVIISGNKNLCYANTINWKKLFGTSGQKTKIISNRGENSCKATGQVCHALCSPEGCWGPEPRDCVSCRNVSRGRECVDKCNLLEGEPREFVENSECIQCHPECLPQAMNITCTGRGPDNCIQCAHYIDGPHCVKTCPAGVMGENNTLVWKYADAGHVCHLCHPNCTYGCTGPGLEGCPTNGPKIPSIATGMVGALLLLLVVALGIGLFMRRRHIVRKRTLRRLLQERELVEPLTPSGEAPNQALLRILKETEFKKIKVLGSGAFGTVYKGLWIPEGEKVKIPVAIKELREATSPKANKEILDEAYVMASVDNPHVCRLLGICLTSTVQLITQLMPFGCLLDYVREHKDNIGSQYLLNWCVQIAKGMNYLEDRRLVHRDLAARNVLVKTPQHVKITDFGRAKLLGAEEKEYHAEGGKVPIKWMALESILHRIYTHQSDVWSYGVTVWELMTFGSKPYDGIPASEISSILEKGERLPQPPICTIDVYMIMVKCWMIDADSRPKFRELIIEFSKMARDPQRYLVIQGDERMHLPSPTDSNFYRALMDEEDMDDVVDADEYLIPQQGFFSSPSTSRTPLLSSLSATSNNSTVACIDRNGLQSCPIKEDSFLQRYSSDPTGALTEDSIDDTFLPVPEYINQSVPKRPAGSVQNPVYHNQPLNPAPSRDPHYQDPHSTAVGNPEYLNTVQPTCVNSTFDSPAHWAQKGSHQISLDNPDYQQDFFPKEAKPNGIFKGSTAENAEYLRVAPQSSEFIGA"}, "FAK": {"target": "T4, FAK (Homo sapiens, UniProt Q05397)", "T4 construct": "purchased Eurofins DiscoverX KINOMEscan (scanTK)"}, "[1]": {"target": "T5, ABL1(F317L)-nonphosphorylated (Homo sapiens, UniProt P00519, F317L)", "T5 construct": "purchased Eurofins DiscoverX KINOMEscan (scanTK)", "T5 sequence (P00519 whole entry F317L)": "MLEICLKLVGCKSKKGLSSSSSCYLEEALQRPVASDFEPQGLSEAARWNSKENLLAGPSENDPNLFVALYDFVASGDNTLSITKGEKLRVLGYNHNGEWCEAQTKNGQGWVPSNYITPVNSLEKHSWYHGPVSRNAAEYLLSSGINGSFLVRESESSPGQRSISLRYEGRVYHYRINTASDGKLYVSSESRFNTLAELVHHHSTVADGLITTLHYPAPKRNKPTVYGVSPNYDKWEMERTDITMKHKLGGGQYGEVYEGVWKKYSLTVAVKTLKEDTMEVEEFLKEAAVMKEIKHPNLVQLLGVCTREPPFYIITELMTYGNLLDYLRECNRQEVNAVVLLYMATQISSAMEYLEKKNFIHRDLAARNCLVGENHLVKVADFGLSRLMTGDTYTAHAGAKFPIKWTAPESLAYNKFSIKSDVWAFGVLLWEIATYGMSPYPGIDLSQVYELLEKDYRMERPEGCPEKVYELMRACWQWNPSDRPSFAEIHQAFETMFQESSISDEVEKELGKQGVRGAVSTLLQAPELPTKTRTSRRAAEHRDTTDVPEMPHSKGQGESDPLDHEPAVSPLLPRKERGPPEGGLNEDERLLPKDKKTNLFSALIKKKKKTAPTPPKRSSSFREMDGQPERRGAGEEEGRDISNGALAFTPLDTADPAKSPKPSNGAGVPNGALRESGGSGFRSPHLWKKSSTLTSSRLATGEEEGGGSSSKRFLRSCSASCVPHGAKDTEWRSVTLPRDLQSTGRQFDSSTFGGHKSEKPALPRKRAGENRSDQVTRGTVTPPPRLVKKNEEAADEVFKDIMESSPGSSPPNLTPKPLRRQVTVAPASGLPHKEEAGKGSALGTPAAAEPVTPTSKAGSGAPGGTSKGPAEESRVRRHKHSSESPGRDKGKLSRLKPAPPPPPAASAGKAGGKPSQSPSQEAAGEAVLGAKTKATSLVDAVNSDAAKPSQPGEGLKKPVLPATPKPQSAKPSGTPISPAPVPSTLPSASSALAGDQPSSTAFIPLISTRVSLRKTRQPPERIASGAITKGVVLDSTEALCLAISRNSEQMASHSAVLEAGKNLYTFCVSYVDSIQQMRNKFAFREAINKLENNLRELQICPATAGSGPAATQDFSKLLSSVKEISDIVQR"}, "FER": {"target": "T6, FER (Homo sapiens, UniProt P16591)", "T6 construct": "purchased Eurofins DiscoverX KINOMEscan (scanTK)"}, "MET(M1250T)": {"target": "T7, MET(M1250T) (Homo sapiens, UniProt P08581, M1250T)", "T7 construct": "purchased Eurofins DiscoverX KINOMEscan (scanTK)"}, "RET": {"target": "T8, RET (Homo sapiens, UniProt P07949)", "T8 construct": "purchased Eurofins DiscoverX KINOMEscan (scanTK)", "T8 sequence (P07949 29-1114)": "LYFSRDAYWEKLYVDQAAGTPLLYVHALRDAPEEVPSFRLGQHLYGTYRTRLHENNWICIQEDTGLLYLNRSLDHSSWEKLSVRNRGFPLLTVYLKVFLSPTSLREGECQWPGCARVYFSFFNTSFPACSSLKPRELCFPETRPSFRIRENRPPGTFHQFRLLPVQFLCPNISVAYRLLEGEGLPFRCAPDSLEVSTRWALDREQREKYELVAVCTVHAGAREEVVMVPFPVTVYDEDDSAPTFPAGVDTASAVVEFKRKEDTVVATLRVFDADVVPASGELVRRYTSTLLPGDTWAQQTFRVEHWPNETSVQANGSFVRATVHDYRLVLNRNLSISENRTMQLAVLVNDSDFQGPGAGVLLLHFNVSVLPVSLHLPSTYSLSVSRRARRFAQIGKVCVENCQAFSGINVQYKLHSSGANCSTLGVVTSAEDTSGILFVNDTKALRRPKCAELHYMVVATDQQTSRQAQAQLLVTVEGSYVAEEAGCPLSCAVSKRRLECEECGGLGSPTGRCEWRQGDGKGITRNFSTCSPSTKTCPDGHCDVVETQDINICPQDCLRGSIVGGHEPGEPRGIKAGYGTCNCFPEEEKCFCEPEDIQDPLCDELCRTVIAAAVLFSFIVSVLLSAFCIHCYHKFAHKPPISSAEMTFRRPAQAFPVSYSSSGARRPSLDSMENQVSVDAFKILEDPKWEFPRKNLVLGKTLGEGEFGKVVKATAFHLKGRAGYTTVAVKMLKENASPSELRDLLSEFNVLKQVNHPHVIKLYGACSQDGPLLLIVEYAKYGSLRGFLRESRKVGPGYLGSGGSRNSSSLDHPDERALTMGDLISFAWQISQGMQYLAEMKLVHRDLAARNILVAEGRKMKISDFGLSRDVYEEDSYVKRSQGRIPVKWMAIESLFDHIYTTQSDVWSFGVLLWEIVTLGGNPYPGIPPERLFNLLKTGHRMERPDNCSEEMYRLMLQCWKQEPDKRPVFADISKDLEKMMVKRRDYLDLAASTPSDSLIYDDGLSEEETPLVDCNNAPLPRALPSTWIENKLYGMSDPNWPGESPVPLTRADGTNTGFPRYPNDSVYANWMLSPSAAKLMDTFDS"}, "FES": {"target": "T9, FES (Homo sapiens, UniProt P07332)", "T9 construct": "purchased Eurofins DiscoverX KINOMEscan (scanTK)"}, "EGFR(L747-T751del,Sins)": {"test_system": "EGFR(L747-T751del,Sins)"}, "CTK": {"target": "T10, CTK (Homo sapiens, UniProt P42679)", "T10 construct": "purchased Eurofins DiscoverX KINOMEscan (scanTK)", "T10 sequence (P42679 1-507)": "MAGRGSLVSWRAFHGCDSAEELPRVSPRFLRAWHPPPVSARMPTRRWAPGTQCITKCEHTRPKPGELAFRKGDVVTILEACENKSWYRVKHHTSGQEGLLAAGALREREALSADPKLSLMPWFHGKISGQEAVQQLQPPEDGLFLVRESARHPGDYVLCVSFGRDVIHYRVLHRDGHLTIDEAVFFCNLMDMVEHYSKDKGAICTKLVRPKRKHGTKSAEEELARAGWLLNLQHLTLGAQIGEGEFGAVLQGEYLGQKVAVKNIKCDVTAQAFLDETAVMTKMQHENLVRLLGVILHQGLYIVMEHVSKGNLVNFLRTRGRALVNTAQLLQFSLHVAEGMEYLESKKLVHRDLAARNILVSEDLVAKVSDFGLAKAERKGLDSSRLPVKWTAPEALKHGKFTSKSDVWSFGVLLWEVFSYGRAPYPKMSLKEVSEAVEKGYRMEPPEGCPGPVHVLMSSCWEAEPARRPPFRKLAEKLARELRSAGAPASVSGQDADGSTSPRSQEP"}, "DDR2": {"target": "T11, DDR2 (Homo sapiens, UniProt Q16832)", "T11 construct": "purchased Eurofins DiscoverX KINOMEscan (scanTK)", "T11 sequence (Q16832 22-855)": "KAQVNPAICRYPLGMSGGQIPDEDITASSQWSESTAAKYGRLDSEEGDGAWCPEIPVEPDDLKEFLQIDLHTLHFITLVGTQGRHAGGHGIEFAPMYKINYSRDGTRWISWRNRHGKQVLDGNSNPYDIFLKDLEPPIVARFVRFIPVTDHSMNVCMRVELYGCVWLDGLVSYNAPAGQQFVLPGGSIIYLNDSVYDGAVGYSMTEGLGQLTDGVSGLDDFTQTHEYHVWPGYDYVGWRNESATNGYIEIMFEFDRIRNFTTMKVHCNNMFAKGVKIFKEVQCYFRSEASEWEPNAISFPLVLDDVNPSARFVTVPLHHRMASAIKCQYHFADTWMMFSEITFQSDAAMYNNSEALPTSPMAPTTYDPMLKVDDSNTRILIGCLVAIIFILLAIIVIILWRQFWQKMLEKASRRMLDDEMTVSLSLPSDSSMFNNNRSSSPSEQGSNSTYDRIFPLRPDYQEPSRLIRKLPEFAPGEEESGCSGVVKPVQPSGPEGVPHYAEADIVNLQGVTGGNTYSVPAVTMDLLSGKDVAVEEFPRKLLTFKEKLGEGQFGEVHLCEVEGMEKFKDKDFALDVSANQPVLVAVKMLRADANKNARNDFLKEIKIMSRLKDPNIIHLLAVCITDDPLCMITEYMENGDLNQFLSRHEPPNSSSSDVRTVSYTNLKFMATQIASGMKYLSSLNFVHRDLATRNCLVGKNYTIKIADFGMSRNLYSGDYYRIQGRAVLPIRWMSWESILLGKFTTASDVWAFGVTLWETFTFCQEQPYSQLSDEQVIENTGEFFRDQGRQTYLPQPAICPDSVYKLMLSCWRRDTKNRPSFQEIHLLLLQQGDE", "settings": "DDR2"}}, "note": "Read-outs that look alike come from different tables or passages of the source.", "data": [{"molecule": "CNC(=O)c1cnc(S(C)(=O)=O)nc1N1CCCC(n2nc(-c3ccc(Oc4ccccc4)cc3)c3c(N)ncnc32)C1", "note": "(centres unmarked) [Compound 8d, 4-(3-(4-Amino-3-(4-phenoxyphenyl)-1H-pyrazolo[3,4-d]pyrimidin-1-yl)piperidin-1-yl)-N-methyl-2-(methylsulfonyl)pyrimidine-5-carboxamide]", "values": [{"measurement": "remaining binding at 1 µM", "setting": "LTK; @1000nM, read-out: %Control", "value": 100, "unit": "%"}, {"measurement": "remaining binding at 1 µM", "setting": "LTK; read-out: %Control @1000nM", "value": 100, "unit": "%"}, {"measurement": "remaining binding at 1 µM", "setting": "LCK; @1000nM, read-out: %Control", "value": 4, "unit": "%"}, {"measurement": "remaining binding at 1 µM", "setting": "LCK; read-out: %Control @1000nM", "value": 4, "unit": "%"}, {"measurement": "%Control difference from compound Ib at 1 µM", "setting": "EGFR(L858R); @1000nM", "value": 39.1, "unit": "%"}, {"measurement": "remaining binding at 1 µM", "setting": "EGFR(L858R); @1000nM, read-out: %Control", "value": 41, "unit": "%"}, {"measurement": "remaining binding at 1 µM", "setting": "EGFR(L858R); read-out: %Control @1000nM", "value": 41, "unit": "%"}, {"measurement": "difference in %Control versus compound Ib at 1 µM", "setting": "FAK; @1000nM", "value": 0, "unit": "%"}, {"measurement": "remaining binding at 1 µM", "setting": "FAK; @1000nM, read-out: %Control", "value": 100, "unit": "%"}, {"measurement": "remaining binding at 1 µM", "setting": "FAK; read-out: %Control @1000nM", "value": 100, "unit": "%"}, {"measurement": "difference in % of control binding versus compound Ib at 1 µM", "setting": "[1]; @1000nM", "value": 22, "unit": "%"}, {"measurement": "remaining binding at 1 µM", "setting": "[1]; @1000nM, read-out: %Control", "value": 54, "unit": "%"}, {"measurement": "remaining binding at 1 µM", "setting": "[1]; read-out: %Control @1000nM", "value": 54, "unit": "%"}, {"measurement": "difference in %Control versus compound Ib at 1 µM", "setting": "FER; @1000nM", "value": 0, "unit": "%"}, {"measurement": "remaining binding at 1 µM", "setting": "FER; @1000nM, read-out: %Control", "value": 100, "unit": "%"}, {"measurement": "remaining binding at 1 µM", "setting": "FER; read-out: %Control @1000nM", "value": 100, "unit": "%"}, {"measurement": "remaining binding at 1 µM", "setting": "MET(M1250T); @1000nM, read-out: %Control", "value": 100, "unit": "%"}, {"measurement": "remaining binding at 1 µM", "setting": "MET(M1250T); read-out: %Control @1000nM", "value": 100, "unit": "%"}, {"measurement": "remaining binding at 1 µM", "setting": "RET; @1000nM, read-out: %Control", "value": 31, "unit": "%"}, {"measurement": "remaining binding at 1 µM", "setting": "RET; read-out: %Control @1000nM", "value": 31, "unit": "%"}, {"measurement": "difference in %Control versus compound Ib at 1 µM", "setting": "FES; @1000nM", "value": 0, "unit": "%"}, {"measurement": "remaining binding at 1 µM", "setting": "FES; @1000nM, read-out: %Control", "value": 100, "unit": "%"}, {"measurement": "remaining binding at 1 µM", "setting": "FES; read-out: %Control @1000nM", "value": 100, "unit": "%"}, {"measurement": "%Control @1000nM", "setting": "EGFR(L747-T751del,Sins)", "value": 30, "unit": "%"}, {"measurement": "% difference (compound - Ib %Control)", "setting": "EGFR(L747-T751del,Sins); @1000nM", "value": 27.4, "unit": "%"}, {"measurement": "%Control", "setting": "EGFR(L747-T751del,Sins); @1000nM", "value": 30, "unit": "%"}, {"measurement": "difference in %Control versus compound Ib at 1 µM", "setting": "CTK; @1000nM", "value": -3, "unit": "%"}, {"measurement": "remaining binding at 1 µM", "setting": "CTK; @1000nM, read-out: %Control", "value": 77, "unit": "%"}, {"measurement": "remaining binding at 1 µM", "setting": "CTK; read-out: %Control @1000nM", "value": 77, "unit": "%"}, {"measurement": "difference in %Control from reference compound Ib at 1 µM", "setting": "DDR2; @1000nM", "value": -15, "unit": "%"}, {"measurement": "remaining binding at 1 µM", "setting": "DDR2; @1000nM, read-out: %Control", "value": 82, "unit": "%"}, {"measurement": "remaining binding at 1 µM", "setting": "DDR2; read-out: %Control @1000nM", "value": 82, "unit": "%"}]}]}
